Assay results reported in patent US20250122202A1, “EGFR INHIBITOR, PREPARATION METHOD THEREFOR AND USE THEREOF” (SHANDONG NEW TIME PHARMACEUTICAL CO., LTD., priority 2021, published 2025).
Like-named read-outs stand apart in the source and are kept apart here.

Tests used:
[1] = tested on: A549 EGFR-WT; assay: Cell proliferation inhibition experiment (CCK-8), A549; conditions: Homo sapiens, A549, 72 h
[2] = molecular target: EGFR-Del19/T790M/C797S kinase (Homo sapiens, UniProt P00533, C797S/T790M, form not given); assay: In-vitro enzyme experiment 2 (HTRF kinase assay), EGFR Del19 T790M C797S; assay type: biochemical; conditions: read-out: enzyme inhibition IC50 (nM) EGFR-Del19/T790M/C797S
Procedure: The specific experiment was as follows: • 1. […] Test method of activity of compound • a) a compound diluent was transferred to each well of an assay plate (784075, Greiner) using Echo 550; • b) the assay plate was sealed and centrifuged at 1,000 g for 1 min; • c) 2×EGFR (D770-N771 ins NPG T790M) was prepared in a 1× kinase buffer; • d) 5 μl of the 2×EGFR (D770-N771 ins NPG T790M) was added to a 384-well assay plate (784075, Greiner); • e) the assay plate was centrifuged at 1,000 g for 30 s and incubated at room temperature for 10 min; • f) 2× TK-substrate-biotin (2 μM) and ATP were added to the 1× kinase buffer and mixed; • g) the reaction was started after adding 5 μl of the TK-substrate-biotin (2 μM) and ATP mixture; • h) the assay plate was centrifuged at 1,000 g for 30 s; and the assay plate was sealed and incubated at room temperature for 40 min; • i) 4× Sa-XL 665 was prepared in an HTRF detection buffer; • j) 5 μl of the Sa-XL 665 and 5 μl of a TK-antibody-cryptate were added to each well of the assay plate; • k) the assay plate was centrifuged at 1,000 g for 30 s and incubated at room temperature for 1 h; and • l) fluorescence signals at 615 nm (cryptate) and 665 nm (XL665) were read on an Envision 2104 reader. • 3. Data analysis • 3.1 Calculation of ratio (665/615 nm) of each well • 3.2 Calculation of inhibition rate
[formula] • 3.3 Calculation of IC50 value of compound and drawing dose-effect curve of compound • IC50 values were calculated using GraphPad 6.0 by applying a non-linear regression curve (dose-effect relationship-variable slope) of the logarithm of the compound concentration versus the inhibition rate.
The preparation of the kinase buffer, the test method of the activity of the compound, and the data analysis referred to the relevant definitions in example 117, wherein step c) of the test method of the activity of the compound was replaced by preparing 2×EGFR Del19 T790M C797S in the 1× kinase buffer.

[3] = tested on: KC-1474:PC-9 EGFR-Del19/T790M/C797S; assay: Cell proliferation inhibition experiment (CCK-8), KC-1474; assay type: cell-based; conditions: Homo sapiens, 72 h
From the text: (§1) Inhibition rate %=[(A0−AS)/(A0−AC)]×100%.

[4] = tested on: KC-0178:NCI-1975 EGFR-L858R/T790M/C797S; assay: Cell proliferation inhibition experiment (CCK-8), KC-0178; assay type: cell-based; conditions: Homo sapiens, 72 h
From the text: as §1

[5] = tested on: PC-9 EGFR-Del19; assay: Cell proliferation inhibition experiment (CCK-8), PC-9; assay type: cell-based; conditions: Homo sapiens, 72 h
From the text: as §1

[6] = tested on: H1975 EGFR-L858R/T790M; assay: Cell proliferation inhibition experiment (CCK-8), H1975; assay type: cell-based; conditions: Homo sapiens, NCI-H1975, 72 h
From the text: as §1

[7] = read-out: cell proliferation inhibition IC50 (μM) A549, 72 h, CCK-8
[8] = read-out: cell proliferation inhibition IC50 (μM) A549, 72 h, CCK-8, Table 5 numeric

Sequence of EGFR-Del19/T790M/C797S kinase (P00533 25-1210 T790M/C797S limits assumed, form open): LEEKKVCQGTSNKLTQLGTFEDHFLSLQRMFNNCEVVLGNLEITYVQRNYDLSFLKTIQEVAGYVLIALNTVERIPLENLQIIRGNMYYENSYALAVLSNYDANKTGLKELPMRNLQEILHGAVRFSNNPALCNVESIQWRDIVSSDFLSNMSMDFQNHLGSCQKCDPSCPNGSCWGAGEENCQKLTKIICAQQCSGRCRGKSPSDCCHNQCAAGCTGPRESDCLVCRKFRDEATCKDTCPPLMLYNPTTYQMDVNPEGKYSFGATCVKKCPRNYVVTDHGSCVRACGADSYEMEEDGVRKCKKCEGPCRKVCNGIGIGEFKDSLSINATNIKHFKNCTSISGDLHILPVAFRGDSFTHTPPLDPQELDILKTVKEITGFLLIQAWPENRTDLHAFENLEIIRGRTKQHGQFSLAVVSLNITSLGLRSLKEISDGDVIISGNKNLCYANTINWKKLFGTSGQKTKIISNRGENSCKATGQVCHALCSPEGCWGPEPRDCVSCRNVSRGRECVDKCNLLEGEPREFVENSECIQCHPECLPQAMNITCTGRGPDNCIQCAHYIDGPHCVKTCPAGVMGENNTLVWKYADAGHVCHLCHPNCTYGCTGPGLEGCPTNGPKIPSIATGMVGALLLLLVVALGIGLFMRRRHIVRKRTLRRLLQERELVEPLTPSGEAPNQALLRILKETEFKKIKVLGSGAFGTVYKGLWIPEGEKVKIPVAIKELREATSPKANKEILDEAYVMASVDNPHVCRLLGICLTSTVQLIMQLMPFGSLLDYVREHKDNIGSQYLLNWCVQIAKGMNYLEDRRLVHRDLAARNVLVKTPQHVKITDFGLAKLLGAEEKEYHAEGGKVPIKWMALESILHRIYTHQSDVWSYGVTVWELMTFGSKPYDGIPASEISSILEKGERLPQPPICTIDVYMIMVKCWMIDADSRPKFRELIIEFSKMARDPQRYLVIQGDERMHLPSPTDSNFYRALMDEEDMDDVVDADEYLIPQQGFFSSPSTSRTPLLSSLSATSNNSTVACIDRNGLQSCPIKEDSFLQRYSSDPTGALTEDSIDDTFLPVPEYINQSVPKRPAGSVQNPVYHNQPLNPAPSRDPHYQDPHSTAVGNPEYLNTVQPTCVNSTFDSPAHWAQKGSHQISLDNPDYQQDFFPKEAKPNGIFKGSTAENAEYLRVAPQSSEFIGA

SMILES | IC50 [2] [nM] | IC50 [3] [µM] | IC50 [4] [µM] | further results
COc1cc(N2CCC(N3CCN(C)CC3)CC2)ccc1Nc1ncc(Cl)c(Nc2ccccc2P(C)(C)=O)n1 [Brigatinib, reference compound] | – | – | – | IC50 ([1]; read-out: cell proliferation inhibition IC50 (μM) A549): 6.13 µM
CN1CCN(c2ccc(Nc3nc(N[C@H]4CCCOC4)c4c(C(=O)c5ccc(F)cc5)c[nH]c4n3)cc2)CC1 [Example 57] | 100 to 600 | – | – | –
CN1CCN(c2ccc(Nc3nc(NC4CCN(S(=O)(=O)C5CC5)CC4)c4c(C(=O)c5ccc(F)cc5)c[nH]c4n3)cc2)CC1 [Example 63] | 100 to 600 | – | – | –
CN1CCN(c2ccc(Nc3nc(N[C@H]4CC[C@H](O)CC4)c4c(C(=O)c5ccc(F)cc5)c[nH]c4n3)cc2)CC1 [Example 56] | 10 to 100 | < 0.1 | 1 to 2 | IC50 [5]: < 0.1 µM; IC50 [6]: 0.1 to 1 µM; IC50 [1, 7]: 0.1 to 1 µM
CN1CCN(c2ccc(Nc3nc(NCC4CCOCC4)c4c(C(=O)c5ccc(F)cc5)c[nH]c4n3)cc2)CC1 [Example 59] | 100 to 600 | – | – | –
CO[C@H]1CC[C@H](Nc2nc(Nc3ccc(N4CCN(C)CC4)cc3)nc3[nH]cc(C(=O)c4ccc(F)cc4)c23)CC1 [Example 73] | 100 to 600 | – | – | –
CN1CCN(c2ccc(Nc3nc(NC4(CO)CC4)c4c(C(=O)c5ccc(F)cc5)c[nH]c4n3)cc2)CC1 [Example 10] | 10 to 100 | – | – | –
CN1CCN(c2ccc(Nc3nc(N[C@H]4C=C[C@@H](CO)C4)c4c(C(=O)c5ccc(F)cc5)c[nH]c4n3)cc2)CC1 [Example 20] | 10 to 100 | 0.1 to 1 | 1 to 2 | IC50 [5]: < 0.1 µM; IC50 [6]: 0.1 to 1 µM; IC50 [1, 7]: 0.1 to 1 µM
CN1CCN(c2ccc(Nc3nc(N[C@@H]4CCCN(S(C)(=O)=O)C4)c4c(C(=O)c5ccc(F)cc5)c[nH]c4n3)cc2)CC1 [Example 50] | 100 to 600 | – | – | –
CN1CCN(c2ccc(Nc3nc(N[C@H]4CCOC4)c4c(C(=O)c5ccc(F)cc5)c[nH]c4n3)cc2)CC1 [Example 67] | 100 to 600 | – | – | –
CN1CCN(c2ccc(Nc3nc(N[C@H]4CC[C@@H](O)CC4)c4c(C(=O)c5ccc(F)cc5)c[nH]c4n3)cc2)CC1 [Example 55] | 10 to 100 | < 0.1 | 0.1 to 1 | IC50 [5]: < 0.1 µM; IC50 [6]: 0.1 to 1 µM; IC50 [1, 7]: 0.1 to 1 µM
COc1cc(N2CCN(C)CC2)ccc1Nc1nc(N[C@H]2CC[C@@H](CO)CC2)c2c(C(=O)c3ccc(F)cc3)c[nH]c2n1 [Example 106] | 10 to 100 | 0.1 to 1 | 1 to 2 | –
O=C(c1cc(F)cc(F)c1)c1c[nH]c2nc(Nc3ccc(N4CCOCC4)cc3)nc(N[C@H]3CC[C@H](CO)CC3)c12 [Example 101] | – | – | – | IC50 [1, 8]: 0.46 µM
COc1nn(C)cc1Nc1nc(N[C@H]2CC[C@@H](CO)CC2)c2c(C(=O)c3ccc(F)cc3)c[nH]c2n1 [Example 116] | 10 to 100 | 0.1 to 1 | 1 to 2 | IC50 [5]: < 0.1 µM; IC50 [6]: 0.1 to 1 µM; IC50 [1, 7]: 1 to 2 µM
Cc1ccc(C(=O)c2c[nH]c3nc(Nc4ccc(N5CCOCC5)cc4)nc(N[C@H]4CC[C@H](CO)CC4)c23)cc1 [Example 97] | – | 0.1 to 1 | 0.1 to 1 | –
CN1CCN(c2ccc(Nc3nc(N[C@@H]4CCN(S(C)(=O)=O)C4)c4c(C(=O)c5ccc(F)cc5)c[nH]c4n3)cc2)CC1 [Example 49] | 100 to 600 | – | – | –
CN1CCC(Nc2nc(Nc3ccc(N4CCN(C)CC4)cc3)nc3[nH]cc(C(=O)c4ccc(F)cc4)c23)CC1 [Example 85] | 100 to 600 | – | – | –
CN1CCN(c2ccc(Nc3nc(N[C@H]4CC[C@@H](N)CC4)c4c(C(=O)c5ccc(F)cc5)c[nH]c4n3)cc2)CC1 [Example 86] | < 10 | < 0.1 | 1 to 2 | IC50 [5]: < 0.1 µM; IC50 [6]: 0.1 to 1 µM
C=CC(=O)Nc1cccc(Oc2nc(Nc3ccc(N4CCN(C)CC4)c(F)c3)nc3[nH]ccc23)c1 [Avitinib, reference compound] | – | 0.1 to 1 | 1 to 2 | IC50 [1, 8]: 1.06 µM
O=C(c1ccc(F)cc1)c1c[nH]c2nc(Nc3ccc(N4CCOCC4)cc3)nc(N[C@@H]3CC[C@@H](CO)OC3)c12 [Example 94] | 10 to 100 | – | – | –
Cn1cc(Nc2nc(N[C@@H]3CCCN(S(=O)(=O)C4CC4)C3)c3c(C(=O)c4ccc(F)cc4)c[nH]c3n2)cn1 [Example 4] | – | – | – | IC50 [1, 8]: 6.53 µM
